Experimental data: patent publication US7378375B1, “Substituted pyridine herbicides” (Syngenta Crop Protection, Inc., priority 2000, dated 2008)
Blank lines part the entries; values can stand above or below the compound they belong to.

Assays:
[1] = tested on: Monocotyledonous and dicotyledonous test plants; test: Herbicidal action before emergence of the plants (pre-emergence action), greenhouse pot test, 9-level rating after 4 weeks; type: in vivo; conditions: 250 g/ha, rated after 4 weeks, 9-level scale
In short: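 Compounds applied pre-emergence as a spray (500 l water/ha) of aqueous suspension or emulsion onto soil immediately after sowing mono- and dicot species in pots. Greenhouse-grown; damage rated after 4 weeks on a 9-level scale (1=complete damage, 9=no effect).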

[2] = tested on: Monocotyledonous and dicotyledonous test plants; test: Post-emergence herbicidal action, greenhouse pot test, sprayed at the 2- to 3-leaf stage, 9-level rating after 2 to 3 weeks; type: in vivo; conditions: 250 g/ha, rated after 2 to 3 weeks, 9-level scale
In short: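 Plants grown in standard soil in pots; test substances sprayed at the 2- to 3-leaf stage at optimum dosage (500 l water/ha) as aqueous suspension or emulsion from formulated concentrates. Plants then kept in the greenhouse under optimum conditions; rated after 2 to 3 weeks on a 9-level scale (1=complete damage, 9=no effect).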

Compound: CC(=O)OCc1nc(C(F)(F)F)ccc1C(=O)C1=C(O)C2CCC(C2)C1=O.[K+] (centres unmarked)
melting point: 145 to 150 °C

melting point: 138 to 140 °C
Compound: COCc1nc(C(F)(F)F)ccc1C(=O)c1c(C)nn(C)c1O [1.001]

Compound: COCCOCc1nc(C(F)(F)F)ccc1C(=O)C1=C(O)C(C)(C)C(=O)C(C)(C)C1=O [1.012]
melting point: 99 to 100 °C

melting point: 54 to 56 °C
Compound: O=C(C1=C(O)C2CCC(C2)C1=O)c1ccc(C(F)(F)F)nc1COCC1CO1 (centres unmarked) [1.015]

Compound: C#CCOCc1nc(C(F)(F)F)ccc1C(=O)C1=C(O)C2CCC(C2)C1=O (centres unmarked) [1.016]
melting point: 71 to 74 °C

Compound: COCOCc1nc(C(F)(F)F)ccc1C(=O)C1=C(O)C2CCC(C2)C1=O (centres unmarked) [1.017]
melting point: 95 to 98 °C

Compound: C=CCOCc1nc(C(F)(F)F)ccc1C(=O)C1=C(O)C2CCC(C2)C1=O (centres unmarked) [1.018]
melting point: 53 to 55 °C

Compound: O=C(C1=C(O)C2CCC(C2)C1=O)c1ccc(C(F)(F)F)nc1COCC1CCCO1 (centres unmarked) [A848-B52]
Pre-emergence action rating, Abutilon [1]: 7
Pre-emergence action rating, Amaranthus [1]: 1
Pre-emergence action rating, Chenop. [1]: 1
Pre-emergence action rating, Digitaria [1]: 1
Pre-emergence action rating, Echino. [1]: 1
Pre-emergence action rating, Panicum [1]: 1
Post-emergence action rating, Abutilon [2]: 2
Post-emergence action rating, Amaranth [2]: 1
Post-emergence action rating, Chenop. [2]: 1
Post-emergence action rating, Digitaria [2]: 2
Post-emergence action rating, Echino. [2]: 2
Post-emergence action rating, Ipopur. [2]: 2
Post-emergence action rating, Panicum [2]: 2
Post-emergence action rating, Xanth. [2]: 2

Compound: N#CCCOCc1nc(C(F)(F)F)ccc1C(=O)C1=C(O)C2CCC(C2)C1=O (centres unmarked) [A849-B52]
Pre-emergence action rating, Abutilon [1]: 2
Pre-emergence action rating, Amaranthus [1]: 1
Pre-emergence action rating, Chenop. [1]: 1
Pre-emergence action rating, Digitaria [1]: 2
Pre-emergence action rating, Echino. [1]: 2
Pre-emergence action rating, Panicum [1]: 1
Post-emergence action rating, Abutilon [2]: 2
Post-emergence action rating, Amaranth [2]: 2
Post-emergence action rating, Chenop. [2]: 2
Post-emergence action rating, Digitaria [2]: 2
Post-emergence action rating, Echino. [2]: 3
Post-emergence action rating, Ipopur. [2]: 2
Post-emergence action rating, Panicum [2]: 2
Post-emergence action rating, Xanth. [2]: 2

Compound: O=C(C1=C(O)C2CCC(C2)C1=O)c1ccc(C(F)(F)F)nc1COCCCl (centres unmarked) [A850-B52]
Pre-emergence action rating, Abutilon [1]: 1
Pre-emergence action rating, Amaranthus [1]: 2
Pre-emergence action rating, Chenop. [1]: 1
Pre-emergence action rating, Digitaria [1]: 2
Pre-emergence action rating, Echino. [1]: 1
Pre-emergence action rating, Panicum [1]: 1
Post-emergence action rating, Abutilon [2]: 2
Post-emergence action rating, Amaranth [2]: 2
Post-emergence action rating, Chenop. [2]: 1
Post-emergence action rating, Digitaria [2]: 2
Post-emergence action rating, Echino. [2]: 2
Post-emergence action rating, Ipopur. [2]: 2
Post-emergence action rating, Panicum [2]: 2
Post-emergence action rating, Xanth. [2]: 2

Compound: O=C(C1=C(O)C2CCC(C2)C1=O)c1ccc(C(F)(F)F)nc1COC1COCOC1 (centres unmarked) [A851-B52]
Pre-emergence action rating, Abutilon [1]: 1
Pre-emergence action rating, Amaranthus [1]: 1
Pre-emergence action rating, Chenop. [1]: 1
Pre-emergence action rating, Digitaria [1]: 1
Pre-emergence action rating, Echino. [1]: 1
Pre-emergence action rating, Panicum [1]: 1
Post-emergence action rating, Abutilon [2]: 3
Post-emergence action rating, Amaranth [2]: 2
Post-emergence action rating, Chenop. [2]: 1
Post-emergence action rating, Digitaria [2]: 3
Post-emergence action rating, Echino. [2]: 4
Post-emergence action rating, Ipopur. [2]: 3
Post-emergence action rating, Panicum [2]: 3
Post-emergence action rating, Xanth. [2]: 3

Compound: O=C(C1=C(O)C2CCC(C2)C1=O)c1ccc(C(F)(F)F)nc1COCC1COCO1 (centres unmarked) [A852-B52]
Pre-emergence action rating, Abutilon [1]: 4
Pre-emergence action rating, Amaranthus [1]: 1
Pre-emergence action rating, Chenop. [1]: 2
Pre-emergence action rating, Digitaria [1]: 1
Pre-emergence action rating, Echino. [1]: 1
Pre-emergence action rating, Panicum [1]: 1
Post-emergence action rating, Abutilon [2]: 3
Post-emergence action rating, Amaranth [2]: 3
Post-emergence action rating, Chenop. [2]: 1
Post-emergence action rating, Digitaria [2]: 4
Post-emergence action rating, Echino. [2]: 4
Post-emergence action rating, Ipopur. [2]: 3
Post-emergence action rating, Panicum [2]: 3
Post-emergence action rating, Xanth. [2]: 3
